The term pIC50 denotes −log10 of the IC50, conventionally taken in molar units. A high value points to a small IC50.

From ChEMBL document CHEMBL3638798, “Metastin derivative and use thereof” (2013) come the findings set out here.

pIC50: −log10 of the molar value.

For the test, the target named is KiSS-1 receptor (Homo sapiens, UniProt Q969F8). In words: Binding Assay: Binding inhibition assay using human GPR54.
KiSS-1 receptor, sequence (Q969F8 whole entry): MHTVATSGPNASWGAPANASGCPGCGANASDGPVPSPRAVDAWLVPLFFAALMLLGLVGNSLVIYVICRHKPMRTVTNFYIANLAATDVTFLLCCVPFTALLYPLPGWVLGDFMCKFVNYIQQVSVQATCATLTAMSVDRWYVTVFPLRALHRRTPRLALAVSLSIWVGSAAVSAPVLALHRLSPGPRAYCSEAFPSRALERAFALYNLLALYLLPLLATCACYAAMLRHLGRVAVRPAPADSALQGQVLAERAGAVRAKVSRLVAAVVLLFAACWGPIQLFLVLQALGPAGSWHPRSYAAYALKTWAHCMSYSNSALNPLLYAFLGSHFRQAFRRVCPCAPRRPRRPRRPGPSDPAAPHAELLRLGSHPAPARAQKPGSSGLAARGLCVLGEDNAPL

As for `CNCC(=O)N[C@@H](CC(C)C)C(C)=O`, the pIC50 was 9.15.
